The CheMixHub viscosity set
± gives the uncertainty stated by the source.

Experiment: xn = mol fraction of the nth substance listed

C1COCO1 + C1CCCCC1
viscosity [mPa·s], 101.3 kPa
Conditions | x2 = 0.0994 | x2 = 0.1978 | x2 = 0.3014 | x2 = 0.3991 | x2 = 0.4961 | x2 = 0.5974 | x2 = 0.6998 | x2 = 0.8012 | x2 = 0.8994
298.15 K | 0.5886 ± 0.0055 | 0.593 ± 0.0055 | 0.6047 ± 0.0056 | 0.6199 ± 0.0057 | 0.6405 ± 0.0058 | 0.6642 ± 0.006 | 0.6971 ± 0.0063 | 0.7404 ± 0.0066 | 0.8026 ± 0.0071
313.15 K | 0.4948 ± 0.0048 | 0.4959 ± 0.0048 | 0.5024 ± 0.0048 | 0.5119 ± 0.0049 | 0.5256 ± 0.005 | 0.5441 ± 0.0051 | 0.5653 ± 0.0053 | 0.5967 ± 0.0055 | 0.6392 ± 0.0059

CCCCCCCCC + C1CCCCC1
viscosity [mPa·s], 101.33 kPa
Conditions | 298.15 K | 303.15 K | 308.15 K
x2 = 0.106 | 0.658 ± 0.005 | 0.617 ± 0.005 | 0.576 ± 0.004
x2 = 0.1286 | 0.6708 ± 0.0059 | – | –
x2 = 0.1999 | 0.664 ± 0.005 | 0.623 ± 0.005 | 0.582 ± 0.004
x2 = 0.2414 | 0.6821 ± 0.006 | – | –
x2 = 0.2987 | 0.672 ± 0.005 | 0.632 ± 0.005 | 0.589 ± 0.004
x2 = 0.342 | 0.686 ± 0.006 | – | –
x2 = 0.3971 | 0.677 ± 0.005 | 0.633 ± 0.005 | 0.591 ± 0.004
x2 = 0.4371 | 0.7041 ± 0.0062 | – | –
x2 = 0.4952 | 0.696 ± 0.005 | 0.648 ± 0.005 | 0.602 ± 0.004
x2 = 0.5293 | 0.7089 ± 0.0062 | – | –
x2 = 0.5978 | 0.708 ± 0.005 | 0.659 ± 0.005 | 0.616 ± 0.005
x2 = 0.6059 | 0.7214 ± 0.0063 | – | –
x2 = 0.683 | 0.7381 ± 0.0064 | – | –
x2 = 0.6994 | 0.73 ± 0.005 | 0.679 ± 0.005 | 0.631 ± 0.005
x2 = 0.7423 | 0.7545 ± 0.0065 | – | –
x2 = 0.7989 | 0.762 ± 0.005 | 0.706 ± 0.005 | 0.658 ± 0.005
x2 = 0.8068 | 0.7761 ± 0.0067 | – | –
x2 = 0.873 | 0.8053 ± 0.0069 | – | –
x2 = 0.8991 | 0.805 ± 0.006 | 0.743 ± 0.005 | 0.687 ± 0.005
x2 = 0.9395 | 0.8376 ± 0.0071 | – | –
x2 = 0.9769 | 0.881 ± 0.0075 | – | –

Cc1cccc(C)n1 + C1CCCCC1
viscosity [mPa·s], 101 kPa
Conditions | x1 = 0.104 | x1 = 0.198 | x1 = 0.306 | x1 = 0.4003 | x1 = 0.503 | x1 = 0.6001 | x1 = 0.705 | x1 = 0.799 | x1 = 0.898
303 K | 0.727 ± 0.0053 | 0.6904 ± 0.0053 | 0.67 ± 0.0054 | 0.6636 ± 0.0057 | 0.6619 ± 0.006 | 0.6624 ± 0.0064 | 0.6771 ± 0.0069 | 0.6933 ± 0.0074 | 0.7297 ± 0.0082
313 K | 0.6341 ± 0.0047 | 0.6026 ± 0.0047 | 0.5879 ± 0.0049 | 0.58 ± 0.005 | 0.5789 ± 0.0053 | 0.5888 ± 0.0057 | 0.601 ± 0.0062 | 0.615 ± 0.0066 | 0.6426 ± 0.0073
323 K | 0.5572 ± 0.0042 | 0.5372 ± 0.0043 | 0.5288 ± 0.0044 | 0.5212 ± 0.0046 | 0.5181 ± 0.0048 | 0.5208 ± 0.0051 | 0.5361 ± 0.0056 | 0.5491 ± 0.006 | 0.5758 ± 0.0066

O=S(Cl)Cl + C1CCCCC1
298.15 K, 101 kPa
Conditions | viscosity [mPa·s]
x1 = 0.272 | 0.7201 ± 0.019
x1 = 0.466 | 0.6634 ± 0.017
x1 = 0.806 | 0.6183 ± 0.016
x1 = 0.937 | 0.6156 ± 0.016

C1COCO1 + C1CCOC1
298.15 K, 101 kPa
Conditions | viscosity [mPa·s]
x2 = 0.1025 | 0.5975 ± 0.0052
x2 = 0.2043 | 0.5993 ± 0.0052
x2 = 0.3057 | 0.5923 ± 0.0051
x2 = 0.4065 | 0.5804 ± 0.005
x2 = 0.5067 | 0.5634 ± 0.0049
x2 = 0.6065 | 0.5438 ± 0.0048
x2 = 0.7056 | 0.5224 ± 0.0046
x2 = 0.8043 | 0.501 ± 0.0044
x2 = 0.9024 | 0.4802 ± 0.0043

ClC(Cl)C(Cl)(Cl)Cl + C1COCCO1
303.15 K, 101 kPa
Conditions | viscosity [mPa·s]
x2 = 0.0967 | 2.052 ± 0.02
x2 = 0.1938 | 2.133 ± 0.02
x2 = 0.2925 | 2.141 ± 0.021
x2 = 0.3925 | 2.108 ± 0.02
x2 = 0.4926 | 2.011 ± 0.019
x2 = 0.5951 | 1.851 ± 0.018
x2 = 0.6928 | 1.65 ± 0.016
x2 = 0.795 | 1.463 ± 0.014
x2 = 0.8962 | 1.289 ± 0.013

COCOC + C1C[C@@H]2[C@H]3CC[C@H](C3)[C@@H]2C1
viscosity [mPa·s], 100 kPa
Conditions | x1 = 0.1048 | x1 = 0.2024 | x1 = 0.3042 | x1 = 0.4061 | x1 = 0.5027 | x1 = 0.5936 | x1 = 0.7008 | x1 = 0.8058 | x1 = 0.9096
293.15 K | 2.257 ± 0.23 | 1.767 ± 0.18 | 1.398 ± 0.14 | 1.122 ± 0.11 | 0.901 ± 0.091 | 0.749 ± 0.075 | 0.616 ± 0.062 | – | 0.428 ± 0.043
298.15 K | 2.053 ± 0.21 | 1.606 ± 0.16 | 1.295 ± 0.13 | 1.043 ± 0.11 | 0.845 ± 0.085 | 0.704 ± 0.071 | 0.586 ± 0.059 | 0.45 ± 0.045 | 0.408 ± 0.041
303.15 K | 1.903 ± 0.19 | 1.483 ± 0.15 | 1.202 ± 0.12 | 0.964 ± 0.097 | 0.797 ± 0.08 | 0.664 ± 0.067 | 0.558 ± 0.056 | 0.433 ± 0.043 | 0.393 ± 0.039
308.15 K | 1.746 ± 0.18 | 1.408 ± 0.14 | 1.12 ± 0.11 | 0.908 ± 0.091 | 0.737 ± 0.074 | 0.628 ± 0.063 | 0.531 ± 0.053 | 0.421 ± 0.042 | 0.38 ± 0.038
313.15 K | 1.615 ± 0.16 | 1.3 ± 0.13 | 1.047 ± 0.11 | 0.846 ± 0.085 | 0.716 ± 0.072 | 0.594 ± 0.06 | 0.507 ± 0.051 | 0.402 ± 0.04 | 0.368 ± 0.037

CCCCCCCCC + CC1CCCCC1
viscosity [mPa·s], 101 kPa
Conditions | 293.15 K | 298.15 K | 303.15 K | 308.15 K
x2 = 0.0426 | 0.7162 ± 0.006 | 0.6637 ± 0.0056 | 0.6214 ± 0.0054 | –
x2 = 0.1052 | – | 0.664 ± 0.013 | 0.625 ± 0.012 | 0.585 ± 0.012
x2 = 0.1496 | 0.7103 ± 0.0062 | 0.6606 ± 0.0058 | 0.6176 ± 0.0055 | –
x2 = 0.198 | – | 0.66 ± 0.013 | 0.614 ± 0.012 | 0.58 ± 0.011
x2 = 0.2805 | 0.7065 ± 0.0065 | 0.6594 ± 0.0061 | 0.6151 ± 0.0058 | –
x2 = 0.299 | – | 0.658 ± 0.013 | 0.616 ± 0.012 | 0.578 ± 0.011
x2 = 0.3606 | 0.7056 ± 0.0067 | 0.66 ± 0.0063 | 0.6148 ± 0.006 | –
x2 = 0.4018 | – | 0.659 ± 0.012 | 0.616 ± 0.012 | 0.577 ± 0.011
x2 = 0.4418 | 0.707 ± 0.0069 | 0.6607 ± 0.0065 | 0.6168 ± 0.0062 | –
x2 = 0.4978 | – | 0.659 ± 0.012 | 0.617 ± 0.012 | 0.577 ± 0.011
x2 = 0.5953 | 0.7117 ± 0.0073 | 0.6639 ± 0.0069 | 0.6225 ± 0.0066 | –
x2 = 0.5982 | – | 0.661 ± 0.012 | 0.62 ± 0.012 | 0.578 ± 0.011
x2 = 0.6794 | 0.7158 ± 0.0076 | 0.6669 ± 0.0072 | 0.6292 ± 0.0068 | –
x2 = 0.6991 | – | 0.662 ± 0.012 | 0.618 ± 0.011 | 0.58 ± 0.011
x2 = 0.7579 | 0.7196 ± 0.0079 | 0.6709 ± 0.0074 | 0.6339 ± 0.0071 | –
x2 = 0.7995 | – | 0.665 ± 0.012 | 0.62 ± 0.011 | 0.582 ± 0.011
x2 = 0.8388 | 0.7243 ± 0.0082 | 0.6757 ± 0.0077 | 0.6383 ± 0.0073 | –
x2 = 0.9012 | – | 0.671 ± 0.012 | 0.626 ± 0.011 | 0.587 ± 0.011
x2 = 0.9078 | 0.7296 ± 0.0084 | 0.6788 ± 0.0079 | 0.6428 ± 0.0075 | –
